This is an account of results in patent US20060079453A1, “Hla binding peptides and their uses” (priority 2002, published 2006).

Targets include HLA-DR DRB1*0101 (DR1) (Homo sapiens, UniProt P01903+P01911, A100R/D57E/F55L/F60I/F76Y/I96L/L162R/M171V/P40L/Q125E/R42F/V115G/Y59C); HLA-DR DRB1*0401 (DR4) (Homo sapiens, UniProt P01903+P01911, A100K/A169T/F76Y/I96L/K127E/L162R/M171V/N62H/P40V/Q125Y/R42H/S133A/S149N/S66Y/V115G/V209L/W38E); HLA-DR DRB1*0901 (DR9) (Homo sapiens, UniProt P01903+P01911, A100R/A103E/D57H/D86V/F55Y/F60I/F76Y/I96F/K127E/L162R/M171V/P40D/Q125H/Q99R/R33Q/R42F/S133A/S66N/T210M/V115G/W38K/Y107V/Y59G/Y89S); HLA-DR DRB1*0301 (DR3) (Homo sapiens, UniProt P01903+P01911, A100K/A102G/A103R/A169T/F55Y/I96L/K41T/L162R/M171V/P40S/Q125H/Q178H/Q39Y/R42S/S66N/T106N/T262R/W38E/Y61H); HLA-DR DRB1*0701 (DR7) (Homo sapiens, UniProt P01903+P01911, A100R/A102G/A103Q/D57E/D86V/E43K/F76Y/K127E/L162R/M171V/P40G/Q125H/Q99D/R33Q/R42Y/R54Q/S133A/S66F/T210M/V115G/Y107V/Y59L/Y89S).

Assay in all cases: biochemical
Common to all, as to type: binding

The target in another experiment is HLA-DR DRB1*1302 (DR13) (Homo sapiens, UniProt P01903+P01911, A100E/A169T/K41T/L162R/M171V/P40S/Q125H/Q178H/Q39Y/Q99D/R42S/S66N/T262R/V115G/W38E/Y61H). As to conditions: DRBI *1302.
HLA-DR DRB1*1302 (DR13), sequence (P01903 26-254 limits assumed, other chains not shown): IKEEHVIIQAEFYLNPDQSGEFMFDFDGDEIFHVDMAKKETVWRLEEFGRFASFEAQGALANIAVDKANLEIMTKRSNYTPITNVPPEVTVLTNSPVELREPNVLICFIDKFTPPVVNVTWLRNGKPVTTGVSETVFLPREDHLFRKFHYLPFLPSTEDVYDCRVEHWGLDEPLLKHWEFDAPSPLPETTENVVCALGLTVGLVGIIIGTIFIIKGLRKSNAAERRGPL
The target of the next experiment is HLA-DR DRB1*1501 (DR15) (Homo sapiens, UniProt P01903+P01911). As to conditions: DRBI *1501.
In another experiment the target is HLA-DR DRB1*1101 (DR11) (Homo sapiens, UniProt P01903+P01911, A100R/A169T/A87E/I96F/K41T/L162R/M171V/P40S/Q125H/Q178H/Q39Y/Q99D/R42S/S66Y/T262R/V115G/W38E). As to conditions: DRB1 *1101.
HLA-DR DRB1*1101 (DR11), sequence (P01903 26-254 limits assumed, other chains not shown): as above
In another experiment the target is HLA-DR DRB4*0101 (DR53) (Homo sapiens, UniProt P01903+P13762, G164S). As to conditions: DRB4 *0101.
The target of a further experiment is HLA-DR DRB5*0101 (DR51) (Homo sapiens, UniProt P01903+Q30154). As to conditions: DRB5 *0101.

Where two headings read alike, the source gives them in different places. No end group written: not given here.

HLA-DR DRB1*0301 (DR3), sequence (P01903 26-254 limits assumed, other chains not shown): as above

Take RTVYRDNNPYGVCIM: the IC50 at HLA-DR DRB1*0101 (DR1) (read-out: DRB1 *0101) is 0.524 µM; at HLA-DR DRB1*0401 (DR4) (read-out: DRB1 *0401) it was 0.02 µM; at HLA-DR DRB1*0901 (DR9) (read-out: DRB1 *0901), 24.1 µM.

For `CC(C)C[C@H](NC(=O)[C@H](CCC(N)=O)NC(=O)[C@H](CCC(N)=O)NC(=O)[C@@H](N)Cc1ccccc1)C(=O)N[C@@H](Cc1ccccc1)C(=O)N[C@@H](CC(C)C)C(=O)N[C@@H](CC(N)=O)C(=O)N[C@H](C(=O)N[C@@H](CC(C)C)C(=O)N[C@@H](CO)C(=O)N[C@@H](Cc1ccccc1)C(=O)N[C@H](C(=O)N[C@@H](CS)C(=O)N1CCC[C@H]1C(=O)N[C@@H](Cc1c[nH]c2ccccc12)C(=O)O)C(C)C)[C@@H](C)O`, the IC50 against HLA-DR DRB1*0901 (DR9) (DRB1 *0901) was found to be 2.06 µM; against HLA-DR DRB1*1302 (DR13), 0.0093 µM; against HLA-DR DRB1*1501 (DR15), 24.8 µM.

For DIRILQELLMGSFGI, the IC50 against HLA-DR DRB1*0101 (DR1) (DRB1 *0101) was 0.088 µM; on HLA-DR DRB1*0301 (DR3), 3.25 µM; against HLA-DR DRB1*0701 (DR7) (DRB1 *0701), 1.59 µM; against HLA-DR DRB1*1101 (DR11), 19 µM; against HLA-DR DRB1*1302 (DR13), 5.8 µM; against HLA-DR DRB1*1501 (DR15), 1.62 µM. In addition, the IC50 against HLA-DR DRB4*0101 (DR53) is 0.016 µM; against HLA-DR DRB5*0101 (DR51), over 55.1 µM.

Regarding LGFLQRSSNTQTQK, the IC50 at HLA-DR DRB1*0401 (DR4) (read-out: DRB1 *0401) came to 0.018 µM; on HLA-DR DRB1*0701 (DR7) (read-out: DRB1 *0701), 0.42 µM; at HLA-DR DRB1*0901 (DR9) (read-out: DRB1 *0901), 1.34 µM.

With YKSAHKGFKGVDAQGTLSKI, the IC50 at HLA-DR DRB1*0101 (DR1) (DRB1 *0101) was 0.07 µM; against HLA-DR DRB1*0301 (DR3), over 900 µM; at HLA-DR DRB1*0701 (DR7) (DRB1 *0701), 0.108 µM; at HLA-DR DRB1*1101 (DR11) it was 2 µM; against HLA-DR DRB5*0101 (DR51) it was 1.33 µM.

Consider KKCLNEILIRCHCQ, for which the IC50 on HLA-DR DRB1*0101 (DR1) (read-out: DRB1 *0101) came to 9.36 µM; on HLA-DR DRB1*0901 (DR9) (read-out: DRB1 *0901), 4 µM.

For KSNFLNCYVSGFHPSD, the IC50 at HLA-DR DRB1*0101 (DR1) (DRB1 *0101) was 2.5 µM; at HLA-DR DRB1*0301 (DR3), over 900 µM; against HLA-DR DRB1*1101 (DR11) it was 5 µM.

Regarding QLQQFQKEDAAVTLY, the IC50 on HLA-DR DRB1*0101 (DR1) (read-out: DRB1 *0101) stood at 0.085 µM; on HLA-DR DRB1*0701 (DR7) (read-out: DRB1 *0701), 0.5 µM; on HLA-DR DRB1*0901 (DR9) (read-out: DRB1 *0901) it was 55.4 µM.

For the molecule TLRLCVQSTHVDIRT, the IC50 against HLA-DR DRB1*0101 (DR1) (DRB1 *0101) stood at 1.52 µM; against HLA-DR DRB1*0401 (DR4) (DRB1 *0401), 12 µM; against HLA-DR DRB1*0701 (DR7) (DRB1 *0701), 3.26 µM; on HLA-DR DRB1*0901 (DR9) (DRB1 *0901), 6.37 µM; at HLA-DR DRB1*1101 (DR11) it was 17.6 µM; against HLA-DR DRB1*1302 (DR13), 0.932 µM. Further, the IC50 was 0.243 µM on HLA-DR DRB4*0101 (DR53) and over 22.9 µM against HLA-DR DRB5*0101 (DR51).

Consider LEDLLMGTLGIVCP, for which the IC50 on HLA-DR DRB1*0901 (DR9) (read-out: DRB1 *0901) came to 1.99 µM.

LQQMLLGTLQVVCPG: the IC50 against HLA-DR DRB1*0101 (DR1) (DRB1 *0101) is 0.168 µM; against HLA-DR DRB1*0401 (DR4) (DRB1 *0401), 1.5 µM; against HLA-DR DRB1*0701 (DR7) (DRB1 *0701) it was 0.929 µM; against HLA-DR DRB1*0901 (DR9) (DRB1 *0901), 1.69 µM; against HLA-DR DRB1*1101 (DR11), over 31.6 µM; against HLA-DR DRB1*1302 (DR13), 0.395 µM. For the same molecule, the IC50 came out at 1.01 µM against HLA-DR DRB4*0101 (DR53) and 29.2 µM against HLA-DR DRB5*0101 (DR51).

For LRTIQQLLMGTVNIV, the IC50 worked out at 0.013 µM against HLA-DR DRB1*0101 (DR1) (DRB1 *0101); 23.2 µM against HLA-DR DRB1*0301 (DR3); 0.108 µM against HLA-DR DRB1*0401 (DR4) (DRB1 *0401); 0.513 µM against HLA-DR DRB1*0701 (DR7) (DRB1 *0701); 0.0064 µM on HLA-DR DRB1*1302 (DR13); 0.265 µM at HLA-DR DRB1*1501 (DR15). Moreover, the IC50 came out at 0.015 µM at HLA-DR DRB4*0101 (DR53) and 32.1 µM on HLA-DR DRB5*0101 (DR51).

With VRTLQQLLMQTCTIV, the IC50 came to 0.036 µM at HLA-DR DRB1*0101 (DR1) (read-out: DRB1 *0101), 0.322 µM at HLA-DR DRB1*0401 (DR4) (read-out: DRB1 *0401), 1.82 µM at HLA-DR DRB1*0701 (DR7) (read-out: DRB1 *0701) and 0.496 µM on HLA-DR DRB1*0901 (DR9) (read-out: DRB1 *0901).

With DHRQLQLSISSCLQQLSLLM, the IC50 is 1.36 µM against HLA-DR DRB1*0101 (DR1) (DRB1 *0101); 42.7 µM against HLA-DR DRB1*0301 (DR3); 0.736 µM against HLA-DR DRB1*0701 (DR7) (DRB1 *0701); over 98.5 µM at HLA-DR DRB1*1101 (DR11); 0.069 µM against HLA-DR DRB1*1302 (DR13); 0.067 µM on HLA-DR DRB1*1501 (DR15). Further, the IC50 worked out at 0.532 µM against HLA-DR DRB4*0101 (DR53) and 63.8 µM on HLA-DR DRB5*0101 (DR51).

In the case of YSYFPSIR, the IC50 is at least 50 µM against HLA-DR DRB1*0101 (DR1) (DRB1 *0101); over 900 µM at HLA-DR DRB1*0301 (DR3); 7.22 µM on HLA-DR DRB1*0701 (DR7) (DRB1 *0701); 20 µM on HLA-DR DRB1*1101 (DR11); over 200 µM against HLA-DR DRB5*0101 (DR51).

For the molecule SEVYDFAFADLTVVY, the IC50 on HLA-DR DRB1*0101 (DR1) (DRB1 *0101) is 0.031 µM; at HLA-DR DRB1*0301 (DR3) it was 3 µM; against HLA-DR DRB1*0401 (DR4) (DRB1 *0401), 0.26 µM; against HLA-DR DRB1*0701 (DR7) (DRB1 *0701), 1.85 µM; against HLA-DR DRB1*1101 (DR11), over 18 µM; against HLA-DR DRB1*1302 (DR13), over 13.1 µM. Besides, the IC50 at HLA-DR DRB1*1501 (DR15) stood at 0.955 µM; at HLA-DR DRB5*0101 (DR51), 11.8 µM.
